Measurements as given in PMC9977398, “Next-generation membrane-active glycopeptide antibiotics that also inhibit bacterial cell division” (Chemical Science, 2023).
Converted amounts (≈) assume the structure as drawn.

Key:
[1] = tested on: GFP-FtsI expressing E. coli; parameters: method as in PMID 19995973; conditions: known inhibitor of FtsI; 22 μM in Fig. 5C; cited from earlier work
VRE (VanA phenotype) = tested on: VRE (VanA phenotype); parameters: method as in PMID 27663982, PMID 24846441, PMID 14972384; conditions: cited from earlier work
[2] = tested on: carbapenem-resistant A. baumannii; assay: Murine chronic burn-wound infection model; format: in vivo, mice; conditions: 30 mg kg^−1 topically for 5 days; untreated 8 log CFU g^−1
Experimental: Fig. 6 (A) Propensity of vancomycin and VanQAmC10 to induce resistance in MRSA upon serial exposure to sub-MIC concentrations; (B) (i) experimental design for in vivo efficacy study in a murine thigh infection model, (ii) in vivo efficacy of VanQAmC10 and vancomycin against the multidrug-resistant methicillin-resistant S. aureus (MRSA) (n = 3/dose). Antibiotics were administered intraperitoneally twice at 12 h intervals at a dose of 12 mg kg^−1. (C) (i) Experimental design for in vivo efficacy study in murine burn wound infection model, (ii) in vivo efficacy of VanQAmC10 and colistin against the carbapenem-resistant A. baumannii (n = 5/dose, 1 mouse died in untreated control). VanQAmC10 and colistin were treated topically at 30 mg kg^−1 for 5 days (‘***’ indicates p < 0.0001, ‘**’ indicates p < 0.001, ‘*’ p < 0.05, p = 0.08 (n.s.) for VanQAmC10 with respect to vancomycin).
Further, the efficacy of VanQAmC10 (8) was tested in a chronic burn-wound infection model of A. baumannii.[40] Chronic burn wounds on the back of mice were infected with A. baumannii. […] Infected mice were treated with 30 mg kg^−1 of VanQAmC10 and colistin for five days consecutively. The bacterial load in the untreated group increased to 8 log CFU g^−1 six days post-infection. […] The use of colistin is however limited due to its toxicity and bacteria easily develop resistance to it. […]

## CC1=C(C(=O)O)N2C(=O)[C@@H](NC(=O)[C@H](N)c3ccccc3)[C@H]2SC1 [Cephalexin]
[1]
  phenotype and localization of GFP-FtsI: filamentous phenotype with mislocalized GFP-FtsI protein

## CN[C@H]1C(=O)N[C@@H]2Cc3ccc(cc3)Oc3cc4cc(c3O[C@@H]3O[C@H](C(=O)O)[C@@H](O)[C@H](O)[C@H]3NC(=O)CCCCCCCCC(C)C)Oc3ccc(cc3Cl)[C@@H](O)[C@@H]3NC(=O)[C@H](NC(=O)[C@@H]4NC(=O)[C@@H](NC2=O)c2cc(cc(O)c2Cl)Oc2cc1ccc2O)c1ccc(O)c(c1)-c1c(O[C@H]2O[C@H](CO)[C@@H](O)[C@H](O)[C@@H]2O)cc(O)cc1[C@@H](C(=O)NCCCN(C)C)NC3=O [dalbavancin]
VRE (VanA phenotype)
  MIC against VRE (VanA phenotype): 18 µM (≈ 32.7 µg/mL)

## colistin [reference compound]
[2]
  lower bacterial load as compared to the untreated mice: 4.8 log CFU g^−1
